Results taken from patent US8030357B2, “Use of bupropion metabolites for the treatment of inflammatory disorders” (Biocopea Limited, priority 2006, dated 2011).
Entries after “also recorded” stand apart in the source; their conditions may differ.

Legend:
TNFα = assay: LPS Mouse Assay, serum TNFα; format: in vivo, Balb C ByJ mice; details: mice, i.p. or oral dosing 30 minutes before 1 mg/kg LPS i.p.; serum 2 hours after LPS, ELISA
Experimental: (§1) 7 week old Balb C ByJ mice (24-28 g) were administered, either by i.p. (5 ml/kg) or oral (10 ml/kg) administration, with vehicle or test article. 30 minutes later these animals were challenged with an intraperitoneal injection of 1 mg/kg LPS. 2 hours after LPS challenge blood samples were collected under light isoflurane anaesthesia into normal tubes by retro-orbital puncture. Samples were allowed to clot at room temperature and then spun at 6000 g for 3 min at 4° C. Serum was stored at −20° C. until use. Serum TNFα and IL-10 levels were analysed in duplicate by ELISA technique.

[1] = tested on: LPS-induced model of cytokine release; assay: LPS Mouse Assay, overall cytokine modulation; format: in vivo, Balb C ByJ mice; details: LPS-challenged mice, serum TNFα and IL-10
Experimental: as §1

adjuvant arthritis = assay: Rat Adjuvant Assay; format: in vivo, Male Wistar rats; details: rats, oral once a day from day 11; for paw oedema / paw inflammation: doses 3, 10 and 30 mg/kg
Experimental: Male Wistar rats (180 to 200 g) were inoculated by subplantar injection of Freund's adjuvant (suspension of Mycobacterium butyricum in mineral oil) into the right paw at day 0. Sham inoculations were injected in the same way with 0.9% saline in matched Male Wistar rats. On day 2, animals were weighed. On days 3, 4, 7, 9 and 11, animals were weighed and both their right and left hind paws were measured by plethsymometry by submerging the paw up to the tibiotarsal joint. On day 11, rats with left hind paw volumes increased by 20% were selected for continuance in the study. On the same day, continuance rats were administered test article orally (10 ml/kg in distilled water) and from then on once a day until the completion of the study. Left and right hind paw volumes were measured on days 11, 14, 15, 16, 18 and 21.

[2] = tested on: intraplantar carrageenan induced paw oedema; assay: Carrageenan Paw Assay; format: in vivo, male Wistar rats; details: rats, oral gavage half an hour before carrageenan; paw volume AUC 1-5 hours
Experimental: Fasted (18 hour) male Wistar rats (105-130 g) were weighed and a basal mercury plethysmometer reading was taken of the right hind paw by submerging the paw in the mercury up to the tibiotarsal joint. Subsequently, vehicles, reference items and test articles were administered by oral gavage (10 ml/kg). Half an hour after treatment, 0.1 ml of 2% carrageenan in 0.9% saline was injected into the subplanatar area of the right hind paw. The right paw was measured again with the plethysmometer at 1, 2, 3, 4 and 5 hours after carrageenan administration. Paw volume effects was expressed as the area under the curve for paw volume over time. Activity (inhibition of paw volume) was expressed as the % antiinflammatory activity versus the vehicle control.

SJL mouse EAE model = assay: Experimental Autoimmune Encephalitis; format: in vivo; details: SJL mice, orally 10 mg/kg once a day from the first day
Experimental: Experimental Autoimmune Encephalitis
Acclimatised SJL mice were sensitised by a subcutaneous injection proteolipid protein (PLP) in Freund's complete adjuvant (CFA) acting as an encephalitogenic inoculum. Innoculum was administered subcutaneously at a concentration of 125 μg PLP/300 μg CFA in a volume of 200 μl. 48 hours later, an intraperitoneal injection of pertussis toxin (PTX) was administered at a dose of 20 μg/kg, to increase blood-brain barrier permeability.
Compound (6) was administered from the first day of the experiment and once a day until the end, orally at a dose of 10 mg/kg. Copaxone was administered intraperitoneally at a dose of 25 mg/kg. Throughout the experiment, careful clinical examinations and body weights were taken to observe the well being of the animal.

[3] = tested on: dextran sulphate induced colonic inflammation; assay: DSS Induced Colitis; format: in vivo, BDF1 male mice; details: mice, 3% dextran sulphate
Experimental: 8-10 week old BDF1 male mice (˜30 g) were housed in normal conditions. At the start of the study normal water was exchanged for a 3% dextran sulphate solution to induce colonic inflammation. Concurrently actarit and the positive control budesonide were administered rectally twice a day for 7 days. On day 8 the animal were sacrificed and the large intestine was removed. The lower two thirds were assessed for histological severity (scoring system; 1 mild to 4 severe). Mice were assessed for cumulative rectal bleeding scores, diarrheal scores and cumulative hemoccult measurements.

IL-10 = assay: LPS Mouse Assay, serum IL-10; format: in vivo, Balb C ByJ mice; details: mice, i.p. or oral dosing 30 minutes before 1 mg/kg LPS i.p.; serum 2 hours after LPS, ELISA
Experimental: as §1

C[C@@H](NC(C)(C)C)[C@H](O)c1cccc(Cl)c1 (racemic) [Compound 7, (+/−)-(threo)-2-tert-Butylamino-1-(3-chlorophenyl)propan-1-ol]
effect on TNF alpha secretion induced by LPS (TNFα): inhibiting TNF alpha at all doses administrated; also recorded: small inhibitory effect on TNF alpha at the highest dose

(+/−)-(erythro)-2-tert-Butylamino-1-(3-chlorophenyl)propan-1-ol [Compound 8]
cytokine modulatory activity [1]: cytokine modulatory effects

(+)-(erythro)-2-tert-Butylamino-1-(3-chlorophenyl)propan-1-ol [Compound 6]
protective effects against adjuvant arthritis (adjuvant arthritis): protective effects | paw oedema / paw inflammation (adjuvant arthritis): inhibited paw inflammation at all doses | effect on TNF alpha secretion induced by LPS (TNFα): inhibited | anti-inflammatory effect against carrageenan induced paw oedema [2]: dose-dependant anti-inflammatory effect | effect on second relapse of EAE (SJL mouse EAE model): completely ameliorated the second relapse | comparative effectiveness of (6) against (5) in DSS colitis [3]: marginally more effective | effect on histological scores induced by oral dextran sulphate ([3]; lower dose): large ameliorating effect | effect on histological scores induced by oral dextran sulphate ([3]; top dose): marked effect | effect on IL-10 secretion (IL-10): potentiated II-10 secretion | cytokine modulatory activity [1]: good cytokine modulatory profiles

CC(NC(C)(C)C)C(=O)c1cccc(Cl)c1 (stereo not shown) [Compound 3, 2-tert-Butylamino-1-(3-chlorophenyl)propan-1-one, reference compound]
effect on TNF alpha secretion induced by LPS (TNFα): small effect | effect on IL-10 secretion (IL-10): not present | cytokine modulatory activity [1]: very weak cytokine modulatory activity

(−)-(erythro)-2-tert-Butylamino-1-(3-chlorophenyl)propan-1-ol [Compound 5]
protective effects against adjuvant arthritis (adjuvant arthritis): protective effects | paw oedema / paw inflammation (adjuvant arthritis): reduced paw oedema at the top two doses | effect on TNF alpha secretion induced by LPS (TNFα): inhibited TNFα production | anti-inflammatory effect against carrageenan induced paw oedema [2]: dose-dependant anti-inflammatory effect | effect on histological scores induced by oral dextran sulphate ([3]; top dose): marked effect | effect on IL-10 secretion (IL-10): no effect on IL-10 levels | cytokine modulatory activity [1]: good cytokine modulatory profiles
